From patent publication US20230085307A1, “PYRIDAZINONE COMPOUND AND HERBICIDE” (NISSAN CHEMICAL CORPORATION, priority 2019, published 2023)

What was measured:
barnyard grass [1] = experiment: Test Example 4: herbicidal effect by soil treatment (Table 19, symbol H); format: in vivo, barnyard grass (Echinochloa crus-galli)
Summary of the method: (§1)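 Emulsion of test compound, water-diluted to predetermined amount, sprayed on soil after sowing (seed depth ~1.5 cm, sterilized diluvial soil). Greenhouse, 25–30° C. Effect graded at three weeks post-spray.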

lambsquarters [2] = experiment: Test Example 4: herbicidal effect by soil treatment (Table 19, symbol O); format: in vivo, lambsquarters (Chenopodium album)
Summary of the method: as §1

velvetleaf [3] = experiment: Test Example 4: herbicidal effect by soil treatment (Table 19, symbol M); format: in vivo, velvetleaf (Abutilon theophrasti)
Summary of the method: as §1

lambsquarters [4] = experiment: Test Example 5: herbicidal effect by foliage application, plastic box (Table 20, symbol O); format: in vivo, lambsquarters (Chenopodium album); conditions: foliage application
Summary of the method: (§2)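 Post-emergence foliar test in sterilized diluvial soil. Compound applied as water-diluted emulsion at a predetermined rate to 14-day-old plants; evaluation at three weeks.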

oval-leafed pondweed = experiment: Test Example 1: herbicidal activity, application before weed generation under submerged conditions (Table 16, symbol C); format: in vivo, oval-leafed pondweed (Monochoria vaginalis); conditions: for Herbicidal effect on C: oval-leafed pondweed (grade 0-5): 320 g/ha applied herbicide
Summary of the method: (§3)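 Submerged Wagner pots (alluvial soil, 4 cm water) sown with weed seeds and planted with 2.5-leaf rice seedlings; emulsifiable concentrate diluted in water applied to water surface on sowing day. Held in greenhouse at 25-30 °C; injury scored 0-5 by herbicidal rate after three weeks.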

Japanese bulrush = experiment: Test Example 1: herbicidal activity, application before weed generation under submerged conditions (Table 16, symbol B); format: in vivo, Japanese bulrush (Schoenoplectus juncoides); conditions: for Herbicidal effect on B: Japanese bulrush (grade 0-5): 320 g/ha applied herbicide
Summary of the method: as §3

velvetleaf [5] = experiment: Test Example 5: herbicidal effect by foliage application, plastic box (Table 20, symbol M); format: in vivo, velvetleaf (Abutilon theophrasti); conditions: foliage application
Summary of the method: as §2

Chinese sprangletop = experiment: Test Example 3: herbicidal effect by foliage application, Wagner pot (Table 18, symbol D); format: in vivo, chinese sprangletop (Leptochloa chinensis); conditions: for herbicidal effect on D: Chinese sprangletop: amount of applied herbicide 320 g/ha
Summary of the method: (§4)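 Plants were sown in alluvial soil held under 0.1–0.5 cm standing water and grown 14 days in a greenhouse at 25–30 °C. An emulsifiable formulation, water-diluted to the set dose, was then sprayed onto the foliage, and effects were scored three weeks later using previously defined criteria.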

redroot pigweed = experiment: Test Example 5: herbicidal effect by foliage application, plastic box (Table 20, symbol N); format: in vivo, redroot pigweed (Amaranthus retroflexus); conditions: foliage application
Summary of the method: as §2

Italian ryegrass = experiment: Test Example 5: herbicidal effect by foliage application, plastic box (Table 20, symbol K); format: in vivo, Italian ryegrass (Lolium multiflorum); conditions: foliage application
Summary of the method: as §2

late watergrass = experiment: Test Example 2: herbicidal activity, application during weed generation under submerged conditions (Table 17, symbol A); format: in vivo, late watergrass (Echinochloa oryzicola); conditions: application during weed generation, submerged conditions
Summary of the method: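 Herbicide emulsion, diluted with water to the chosen amount, is applied onto 4 cm floodwater over alluvial soil where the weeds were co-sown and raised at 25–30° C. Application timing: 1–2 leaves. Assessment: three weeks afterwards.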

blackgrass = experiment: Test Example 5: herbicidal effect by foliage application, plastic box (Table 20, symbol J); format: in vivo, blackgrass (Alopecurus myosuroides); conditions: foliage application
Summary of the method: as §2

barnyard grass [6] = experiment: Test Example 3: herbicidal effect by foliage application, Wagner pot (Table 18, symbol H); format: in vivo, barnyard grass (Echinochloa crus-galli); conditions: for herbicidal effect on H: barnyard grass: amount of applied herbicide 320 g/ha
Summary of the method: as §4

persian speedwell = experiment: Test Example 4: herbicidal effect by soil treatment (Table 19, symbol R); format: in vivo, Persian speedwell (Veronica persica)
Summary of the method: as §1

barnyard grass [7] = experiment: Test Example 5: herbicidal effect by foliage application, plastic box (Table 20, symbol H); format: in vivo, barnyard grass (Echinochloa crus-galli); conditions: foliage application
Summary of the method: as §2

windgrass = experiment: Test Example 4: herbicidal effect by soil treatment (Table 19, symbol L); format: in vivo, windgrass (Apera spica-venti)
Summary of the method: as §1

[8] = amount of applied herbicide 274 g/ha
[9] = 274 g/ha, three weeks after application
[10] = amount of applied herbicide 320 g/ha
[11] = 320 g/ha, three weeks after application
[12] = 320 g/ha, evaluated three weeks after application
[13] = AAH 320 g/ha, evaluated three weeks after application

COc1ccccc1-c1sc2cc(C)ccc2c1-c1c(O)c(C)nn(C)c1=O [3-049]
H: barnyard grass, herbicidal effect grade (barnyard grass [1]; [8]): 3 (Herbicidal rate of 40% or more and less than 70%) | O: lambsquarters, herbicidal effect grade (lambsquarters [2]; [8]): 4 (Herbicidal rate of 70% or more and less than 90%) | M: velvetleaf, herbicidal effect grade (velvetleaf [3]; [8]): 0 (Herbicidal rate of 5% or less (almost no effect)) | O: lambsquarters, herbicidal effect grade (lambsquarters [4]; [9]): 4 (Herbicidal rate of 70% or more and less than 90%) | Herbicidal effect, C: oval-leafed pondweed (oval-leafed pondweed; [8]): 3 (Herbicidal rate of 40% or more and less than 70%) | Herbicidal effect, B: Japanese bulrush (Japanese bulrush; [8]): 3 (Herbicidal rate of 40% or more and less than 70%) | M: velvetleaf, herbicidal effect grade (velvetleaf [5]; [9]): 5 (Herbicidal rate of 90% or more (almost completely withered)) | herbicidal effect on Chinese sprangletop (D) (Chinese sprangletop; 274 g/ha): 5 (Herbicidal rate of 90% or more (almost completely withered)) | N: redroot pigweed, herbicidal effect grade (redroot pigweed; [9]): 5 (Herbicidal rate of 90% or more (almost completely withered)) | K: Italian ryegrass, herbicidal effect grade (Italian ryegrass; [9]): 5 (Herbicidal rate of 90% or more (almost completely withered)) | herbicidal effect rating, A: late watergrass (late watergrass; AAH 274 g/ha): 4 (Herbicidal rate of 70% or more and less than 90%) | J: blackgrass, herbicidal effect grade (blackgrass; [9]): 5 (Herbicidal rate of 90% or more (almost completely withered)) | herbicidal effect on barnyard grass (H) (barnyard grass [6]; 274 g/ha): 5 (Herbicidal rate of 90% or more (almost completely withered)) | R: persian speedwell, herbicidal effect grade (persian speedwell; [8]): 4 (Herbicidal rate of 70% or more and less than 90%) | H: barnyard grass, herbicidal effect grade (barnyard grass [7]; [9]): 4 (Herbicidal rate of 70% or more and less than 90%) | L: windgrass, herbicidal effect grade (windgrass; [8]): 5 (Herbicidal rate of 90% or more (almost completely withered))

COc1ccc(-c2sc3ccccc3c2-c2c(O)c(C)nn(C)c2=O)cc1OC [1-072]
herbicidal effect rating, H: barnyard grass (barnyard grass [1]; [10]): 5 (Herbicidal rate of 90% or more (almost completely withered)) | herbicidal effect rating, O: lambsquarters (lambsquarters [2]; [10]): 5 (Herbicidal rate of 90% or more (almost completely withered)) | herbicidal effect rating, M: velvetleaf (velvetleaf [3]; [10]): 5 (Herbicidal rate of 90% or more (almost completely withered)) | herbicidal effect grade, O: lambsquarters (lambsquarters [4]; [11]): 5 (Herbicidal rate of 90% or more (almost completely withered)) | Herbicidal effect on C: oval-leafed pondweed (grade 0-5) (oval-leafed pondweed): 0 (Herbicidal rate of 5% or less (almost no effect)) | Herbicidal effect on B: Japanese bulrush (grade 0-5) (Japanese bulrush): 3 (Herbicidal rate of 40% or more and less than 70%) | herbicidal effect grade, M: velvetleaf (velvetleaf [5]; [11]): 5 (Herbicidal rate of 90% or more (almost completely withered)) | herbicidal effect on D (Chinese sprangletop), rating 0-5 (Chinese sprangletop; 320 g/ha): 5 (Herbicidal rate of 90% or more (almost completely withered)) | herbicidal effect grade, N: redroot pigweed (redroot pigweed; [11]): 5 (Herbicidal rate of 90% or more (almost completely withered)) | herbicidal effect grade, K: Italian ryegrass (Italian ryegrass; [11]): 5 (Herbicidal rate of 90% or more (almost completely withered)) | herbicidal effect rating, A: late watergrass (late watergrass; AAH 320 g/ha): 2 (Herbicidal rate of 20% or more and less than 40%) | herbicidal effect grade, J: blackgrass (blackgrass; [11]): 3 (Herbicidal rate of 40% or more and less than 70%) | herbicidal effect on H (barnyard grass), rating 0-5 (barnyard grass [6]; 320 g/ha): 5 (Herbicidal rate of 90% or more (almost completely withered)) | herbicidal effect rating, R: persian speedwell (persian speedwell; [10]): 5 (Herbicidal rate of 90% or more (almost completely withered)) | herbicidal effect grade, H: barnyard grass (barnyard grass [7]; [11]): 5 (Herbicidal rate of 90% or more (almost completely withered)) | herbicidal effect rating, L: windgrass (windgrass; [10]): 0 (Herbicidal rate of 5% or less (almost no effect))

Cc1nn(C)c(=O)c(-c2c(-c3cccc(OC(C)C)c3)sc3ccc(F)cc23)c1O [2-215]
H: barnyard grass, herbicidal effect rating (barnyard grass [1]; [10]): 5 (Herbicidal rate of 90% or more (almost completely withered)) | O: lambsquarters, herbicidal effect rating (lambsquarters [2]; [10]): 3 (Herbicidal rate of 40% or more and less than 70%) | M: velvetleaf, herbicidal effect rating (velvetleaf [3]; [10]): 2 (Herbicidal rate of 20% or more and less than 40%) | herbicidal effect on O: lambsquarters (criteria 0-5) (lambsquarters [4]; [12]): 3 (Herbicidal rate of 40% or more and less than 70%) | Herbicidal effect on C: oval-leafed pondweed (grade 0-5) (oval-leafed pondweed): 0 (Herbicidal rate of 5% or less (almost no effect)) | Herbicidal effect on B: Japanese bulrush (grade 0-5) (Japanese bulrush): 0 (Herbicidal rate of 5% or less (almost no effect)) | herbicidal effect on M: velvetleaf (criteria 0-5) (velvetleaf [5]; [12]): 3 (Herbicidal rate of 40% or more and less than 70%) | herbicidal effect on D: Chinese sprangletop (Chinese sprangletop): 5 (Herbicidal rate of 90% or more (almost completely withered)) | herbicidal effect on N: redroot pigweed (criteria 0-5) (redroot pigweed; [12]): 5 (Herbicidal rate of 90% or more (almost completely withered)) | herbicidal effect on K: Italian ryegrass (criteria 0-5) (Italian ryegrass; [12]): 5 (Herbicidal rate of 90% or more (almost completely withered)) | herbicidal effect rating, A: late watergrass (late watergrass; AAH 320 g/ha): 2 (Herbicidal rate of 20% or more and less than 40%) | herbicidal effect on J: blackgrass (criteria 0-5) (blackgrass; [12]): 3 (Herbicidal rate of 40% or more and less than 70%) | herbicidal effect on H: barnyard grass (barnyard grass [6]): 5 (Herbicidal rate of 90% or more (almost completely withered)) | R: persian speedwell, herbicidal effect rating (persian speedwell; [10]): 4 (Herbicidal rate of 70% or more and less than 90%) | herbicidal effect on H: barnyard grass (criteria 0-5) (barnyard grass [7]; [12]): 5 (Herbicidal rate of 90% or more (almost completely withered)) | L: windgrass, herbicidal effect rating (windgrass; [10]): 0 (Herbicidal rate of 5% or less (almost no effect))

CCCC(=O)Oc1c(C)nn(C)c(=O)c1-c1c(-c2ccc(SC3CC3)cc2)sc2ccc(F)cc12 [2-255]
herbicidal effect on H: barnyard grass (barnyard grass [1]; [10]): 0 (Herbicidal rate of 5% or less (almost no effect)) | herbicidal effect on O: lambsquarters (lambsquarters [2]; [10]): 3 (Herbicidal rate of 40% or more and less than 70%) | herbicidal effect on M: velvetleaf (velvetleaf [3]; [10]): 3 (Herbicidal rate of 40% or more and less than 70%) | O: lambsquarters, herbicidal effect (criteria 0-5) (lambsquarters [4]; [13]): 4 (Herbicidal rate of 70% or more and less than 90%) | Herbicidal effect on C: oval-leafed pondweed (grade 0-5) (oval-leafed pondweed): 3 (Herbicidal rate of 40% or more and less than 70%) | Herbicidal effect on B: Japanese bulrush (grade 0-5) (Japanese bulrush): 3 (Herbicidal rate of 40% or more and less than 70%) | M: velvetleaf, herbicidal effect (criteria 0-5) (velvetleaf [5]; [13]): 5 (Herbicidal rate of 90% or more (almost completely withered)) | herbicidal effect on D: Chinese sprangletop (Chinese sprangletop): 4 (Herbicidal rate of 70% or more and less than 90%) | N: redroot pigweed, herbicidal effect (criteria 0-5) (redroot pigweed; [13]): 5 (Herbicidal rate of 90% or more (almost completely withered)) | K: Italian ryegrass, herbicidal effect (criteria 0-5) (Italian ryegrass; [13]): 5 (Herbicidal rate of 90% or more (almost completely withered)) | herbicidal effect rating, A: late watergrass (late watergrass; AAH 320 g/ha): 4 (Herbicidal rate of 70% or more and less than 90%) | J: blackgrass, herbicidal effect (criteria 0-5) (blackgrass; [13]): 5 (Herbicidal rate of 90% or more (almost completely withered)) | herbicidal effect on H: barnyard grass (barnyard grass [6]): 5 (Herbicidal rate of 90% or more (almost completely withered)) | herbicidal effect on R: persian speedwell (persian speedwell; [10]): 5 (Herbicidal rate of 90% or more (almost completely withered)) | H: barnyard grass, herbicidal effect (criteria 0-5) (barnyard grass [7]; [13]): 5 (Herbicidal rate of 90% or more (almost completely withered)) | herbicidal effect on L: windgrass (windgrass; [10]): 3 (Herbicidal rate of 40% or more and less than 70%)
